Test results reported in PubChem BioAssay AID1963974 (Molecular Pharmacology Branch, DTP, NCI, 2024).

Tested on: 648629-189-R-J1-PDC spheroids with HUVEC/MSC, viability
Test: Anticancer human tumor 648629-189-R-J1-PDC patient-derived bladder carcinoma cell line growth inhibition [PI3K]
Settings: for IC50: curve of first compound; for viability, T/C: stronger effect = lower value
In short: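 Three cell types, namely tumor cells, endothelial cells and mesenchymal stem cells, formed each spheroid. Combinations with four PI3K inhibitors were screened at clinically achievable concentrations decreasing by half-log, and spheroid viability was recorded.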

[1] = second compound 0.0316 µM, first compound 0.0316 µM
[2] = second compound 0.0316 µM, first compound 0.1 µM
[3] = second compound 0.1 µM, first compound 0.0316 µM
[4] = second compound 0.1 µM, first compound 0.1 µM
[5] = second compound 0.316 µM, first compound 0.0316 µM
[6] = second compound 0.316 µM, first compound 0.1 µM
[7] = second compound 1 µM, first compound 0.0316 µM
[8] = second compound 1 µM, first compound 0.1 µM
[9] = second compound 3.16 µM, first compound 0.0316 µM
[10] = second compound 3.16 µM, first compound 0.1 µM
[11] = second compound 10 µM, first compound 0.0316 µM
[12] = second compound 10 µM, first compound 0.1 µM
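Further: spheroids exposed to agents for seven days before reading.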
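Wherever viability, T/C is given: percent of vehicle control luminescence where 100% = DMSO treated spheroids.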

With `CC(C)n1nc(-c2ccc3oc(N)nc3c2)c2c(N)ncnc21` + CC(Nc1ncnc2nc[nH]c12)c1cc2cccc(Cl)c2c(=O)n1-c1ccccc1 the IC50 (second compound 0.0316 µM) was 0.073 µM, the IC50 (second compound 0.1 µM) was 0.0638 µM and the IC50 (second compound 0.316 µM) was 0.0626 µM. For the same molecule, the IC50 (second compound 1 µM) was 0.0615 µM, the IC50 (second compound 3.16 µM) was 0.0558 µM and the IC50 (second compound 10 µM) was 0.0321 µM. The viability, T/C (second compound 0.0316 µM, first compound 0.000316 µM) was 93.2%, the viability, T/C (second compound 0.0316 µM, first compound 0.001 µM) was 96.1% and the viability, T/C (second compound 0.0316 µM, first compound 0.00316 µM) was 87.9%. It also gave a viability, T/C (second compound 0.0316 µM, first compound 0.01 µM) of 85.4%, a viability, T/C [1] of 85.8% and a viability, T/C [2] of 36.5%. For the same molecule, the viability, T/C (second compound 0.1 µM, first compound 0.000316 µM) was 101%, the viability, T/C (second compound 0.1 µM, first compound 0.001 µM) was 86.5% and the viability, T/C (second compound 0.1 µM, first compound 0.00316 µM) was 101%. The viability, T/C (second compound 0.1 µM, first compound 0.01 µM) was 97.7%, the viability, T/C [3] was 69.5% and the viability, T/C [4] was 37.5%. The viability, T/C (second compound 0.316 µM, first compound 0.000316 µM) was 99.5%, the viability, T/C (second compound 0.316 µM, first compound 0.001 µM) was 107% and the viability, T/C (second compound 0.316 µM, first compound 0.00316 µM) was 104%. The viability, T/C (second compound 0.316 µM, first compound 0.01 µM) was 85.8%, the viability, T/C [5] was 73.8% and the viability, T/C [6] was 34.7%. The viability, T/C (second compound 1 µM, first compound 0.000316 µM) was 104%, the viability, T/C (second compound 1 µM, first compound 0.001 µM) was 89.6% and the viability, T/C (second compound 1 µM, first compound 0.00316 µM) was 101%. It also gave a viability, T/C (second compound 1 µM, first compound 0.01 µM) of 85.6%, a viability, T/C [7] of 68.8% and a viability, T/C [8] of 36.5%. It also gave a viability, T/C (second compound 3.16 µM, first compound 0.000316 µM) of 85.8%, a viability, T/C (second compound 3.16 µM, first compound 0.001 µM) of 103% and a viability, T/C (second compound 3.16 µM, first compound 0.00316 µM) of 91.4%. The viability, T/C (second compound 3.16 µM, first compound 0.01 µM) was 84.6%, the viability, T/C [9] was 66.1% and the viability, T/C [10] was 33.8%. It also gave a viability, T/C (second compound 10 µM, first compound 0.000316 µM) of 83.1%, a viability, T/C (second compound 10 µM, first compound 0.001 µM) of 87.1% and a viability, T/C (second compound 10 µM, first compound 0.00316 µM) of 81.4%. The viability, T/C (second compound 10 µM, first compound 0.01 µM) was 72.3%, the viability, T/C [11] was 50.4% and the viability, T/C [12] was 30.3%.
With `CC1(C)CCC(CN2CCN(c3ccc(C(=O)NS(=O)(=O)c4ccc(NCC5CCOCC5)c([N+](=O)[O-])c4)c(Oc4cnc5[nH]ccc5c4)c3)CC2)=C(c2ccc(Cl)cc2)C1` + CC(Nc1ncnc2nc[nH]c12)c1cc2cccc(Cl)c2c(=O)n1-c1ccccc1 the IC50 (second compound 0.0316 µM) was greater than 10 µM, the IC50 (second compound 0.1 µM) was greater than 10 µM and the IC50 (second compound 0.316 µM) was greater than 10 µM. The IC50 (second compound 1 µM) was greater than 10 µM, the IC50 (second compound 3.16 µM) was greater than 10 µM and the IC50 (second compound 10 µM) was greater than 10 µM. For the same molecule, the viability, T/C [1] was 112%, the viability, T/C [2] was 95.7% and the viability, T/C (second compound 0.0316 µM, first compound 0.316 µM) was 97.3%. For the same molecule, the viability, T/C (second compound 0.0316 µM, first compound 1 µM) was 93.1%, the viability, T/C (second compound 0.0316 µM, first compound 3.16 µM) was 83.4% and the viability, T/C (second compound 0.0316 µM, first compound 10 µM) was 70.3%. The viability, T/C [3] was 102%, the viability, T/C [4] was 85% and the viability, T/C (second compound 0.1 µM, first compound 0.316 µM) was 104%. It also gave a viability, T/C (second compound 0.1 µM, first compound 1 µM) of 92.3%, a viability, T/C (second compound 0.1 µM, first compound 3.16 µM) of 89.4% and a viability, T/C (second compound 0.1 µM, first compound 10 µM) of 64%. The viability, T/C [5] was 92.2%, the viability, T/C [6] was 109% and the viability, T/C (second compound 0.316 µM, first compound 0.316 µM) was 95.8%. It also gave a viability, T/C (second compound 0.316 µM, first compound 1 µM) of 94.5%, a viability, T/C (second compound 0.316 µM, first compound 3.16 µM) of 97.9% and a viability, T/C (second compound 0.316 µM, first compound 10 µM) of 65.9%. It also gave a viability, T/C [7] of 95.6%, a viability, T/C [8] of 108% and a viability, T/C (second compound 1 µM, first compound 0.316 µM) of 102%. For the same molecule, the viability, T/C (second compound 1 µM, first compound 1 µM) was 85.4%, the viability, T/C (second compound 1 µM, first compound 3.16 µM) was 90.2% and the viability, T/C (second compound 1 µM, first compound 10 µM) was 68.4%. The viability, T/C [9] was 103%, the viability, T/C [10] was 101% and the viability, T/C (second compound 3.16 µM, first compound 0.316 µM) was 91.2%. It also gave a viability, T/C (second compound 3.16 µM, first compound 1 µM) of 99.5%, a viability, T/C (second compound 3.16 µM, first compound 3.16 µM) of 88.6% and a viability, T/C (second compound 3.16 µM, first compound 10 µM) of 60.1%. It also gave a viability, T/C [11] of 83.7%, a viability, T/C [12] of 97% and a viability, T/C (second compound 10 µM, first compound 0.316 µM) of 87.8%. The viability, T/C (second compound 10 µM, first compound 1 µM) was 84.8%, the viability, T/C (second compound 10 µM, first compound 3.16 µM) was 68.9% and the viability, T/C (second compound 10 µM, first compound 10 µM) was 59.2%.
